Reference: PubChem BioAssay (NCI)
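Tested at 5 concentrations; 48 h exposure; 96-well plates; endpoints linearly interpolated, else capped at highest concentration. TGI: total growth inhibition.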

Columns and labels:
Experiment in all cases: growth of human tumour cells (NCI), 48 h
786-0 renal = test system: 786-0 renal
A498 renal = test system: A498 renal
A549 NSCLC = test system: A549 NSCLC
ACHN renal = test system: ACHN renal
CAKI-1 renal = test system: CAKI-1 renal
CCRF-CEM leukemia = test system: CCRF-CEM leukemia
COLO 205 colon = test system: COLO 205 colon
DU-145 prostate = test system: DU-145 prostate
EKVX NSCLC = test system: EKVX NSCLC
HCC-2998 colon = test system: HCC-2998 colon
HCT-116 colon = test system: HCT-116 colon
HCT-15 colon = test system: HCT-15 colon
HL-60(TB) leukemia = test system: HL-60(TB) leukemia
HOP-62 NSCLC = test system: HOP-62 NSCLC
HOP-92 NSCLC = test system: HOP-92 NSCLC
HS 578T breast = test system: HS 578T breast
HT29 colon = test system: HT29 colon
IGROV1 ovarian = test system: IGROV1 ovarian
K-562 leukemia = test system: K-562 leukemia
KM12 colon = test system: KM12 colon
LOX IMVI melanoma = test system: LOX IMVI melanoma
M14 melanoma = test system: M14 melanoma
MALME-3M melanoma = test system: MALME-3M melanoma
MDA-MB-231 breast = test system: MDA-MB-231 breast
MDA-MB-435 = test system: MDA-MB-435
MDA-N = test system: MDA-N
MOLT-4 leukemia = test system: MOLT-4 leukemia
NCI-H226 lung = test system: NCI-H226 lung
NCI-H23 lung = test system: NCI-H23 lung
NCI-H460 lung = test system: NCI-H460 lung
NCI-H522 lung = test system: NCI-H522 lung
NCI/ADR-RES ovarian = test system: NCI/ADR-RES ovarian
OVCAR-3 ovarian = test system: OVCAR-3 ovarian
OVCAR-4 ovarian = test system: OVCAR-4 ovarian
OVCAR-5 ovarian = test system: OVCAR-5 ovarian
OVCAR-8 ovarian = test system: OVCAR-8 ovarian
PC-3 prostate = test system: PC-3 prostate
RPMI-8226 leukemia = test system: RPMI-8226 leukemia
SF-268 CNS = test system: SF-268 CNS
SF-539 CNS = test system: SF-539 CNS
SK-MEL-2 melanoma = test system: SK-MEL-2 melanoma
SK-MEL-28 melanoma = test system: SK-MEL-28 melanoma
SK-MEL-5 melanoma = test system: SK-MEL-5 melanoma
SN12C renal = test system: SN12C renal
SNB-19 CNS = test system: SNB-19 CNS
SNB-75 CNS = test system: SNB-75 CNS
SR leukemia = test system: SR leukemia
SW-620 colon = test system: SW-620 colon
TK-10 renal = test system: TK-10 renal
U251 CNS = test system: U251 CNS
UACC-257 melanoma = test system: UACC-257 melanoma
UACC-62 melanoma = test system: UACC-62 melanoma
UO-31 renal = test system: UO-31 renal
BT-549 breast = test system: BT-549 breast
MCF7 breast = test system: MCF7 breast
RXF 393 renal = test system: RXF 393 renal
SF-295 CNS = test system: SF-295 CNS

`O=c1[nH]n(Cc2ccccc2Cl)c2ccccc12` was tested, and the TGI (786-0 renal) was over 100 µM, the TGI (A498 renal) was over 100 µM and the TGI (A549 NSCLC) was over 100 µM. The TGI (ACHN renal) was over 100 µM, the TGI (CAKI-1 renal) was over 100 µM and the TGI (CCRF-CEM leukemia) was over 100 µM. For the same compound, the TGI (COLO 205 colon) was over 100 µM, the TGI (DU-145 prostate) was over 100 µM and the TGI (EKVX NSCLC) was over 100 µM. For the same compound, the TGI (HCC-2998 colon) was over 100 µM, the TGI (HCT-116 colon) was over 100 µM and the TGI (HCT-15 colon) was over 100 µM. It also gave a TGI (HL-60(TB) leukemia) of over 100 µM, a TGI (HOP-62 NSCLC) of over 100 µM and a TGI (HOP-92 NSCLC) of over 100 µM. The TGI (HS 578T breast) was over 100 µM, the TGI (HT29 colon) was over 100 µM and the TGI (IGROV1 ovarian) was over 100 µM. For the same compound, the TGI (K-562 leukemia) was over 100 µM, the TGI (KM12 colon) was over 100 µM and the TGI (LOX IMVI melanoma) was over 100 µM. The TGI (M14 melanoma) was over 100 µM, the TGI (MALME-3M melanoma) was over 100 µM and the TGI (MDA-MB-231 breast) was over 100 µM. It also gave a TGI (MDA-MB-435) of over 100 µM, a TGI (MDA-N) of over 100 µM and a TGI (MOLT-4 leukemia) of over 100 µM. It also gave a TGI (NCI-H226 lung) of over 100 µM, a TGI (NCI-H23 lung) of over 100 µM and a TGI (NCI-H460 lung) of over 100 µM. The TGI (NCI-H522 lung) was over 100 µM, the TGI (NCI/ADR-RES ovarian) was over 100 µM and the TGI (OVCAR-3 ovarian) was over 100 µM. The TGI (OVCAR-4 ovarian) was over 100 µM, the TGI (OVCAR-5 ovarian) was over 100 µM and the TGI (OVCAR-8 ovarian) was over 100 µM. It also gave a TGI (PC-3 prostate) of over 100 µM, a TGI (RPMI-8226 leukemia) of over 100 µM and a TGI (SF-268 CNS) of over 100 µM. It also gave a TGI (SF-539 CNS) of over 100 µM, a TGI (SK-MEL-2 melanoma) of over 100 µM and a TGI (SK-MEL-28 melanoma) of over 100 µM. The TGI (SK-MEL-5 melanoma) was over 100 µM, the TGI (SN12C renal) was over 100 µM and the TGI (SNB-19 CNS) was over 100 µM. For the same compound, the TGI (SNB-75 CNS) was over 100 µM, the TGI (SR leukemia) was over 100 µM and the TGI (SW-620 colon) was over 100 µM. It also gave a TGI (TK-10 renal) of over 100 µM, a TGI (U251 CNS) of over 100 µM and a TGI (UACC-257 melanoma) of over 100 µM. The TGI (UACC-62 melanoma) was over 100 µM and the TGI (UO-31 renal) was over 100 µM.
In the case of `CN(C)Cc1cc(N=Nc2ccc(Cl)cc2)ccc1OC(=O)c1ccccc1`, the TGI (786-0 renal) is reported as 27.8 µM, the TGI (A498 renal) is reported as 31.5 µM and the TGI (A549 NSCLC) is reported as 13.6 µM. It also gave a TGI (ACHN renal) of 28.7 µM, a TGI (BT-549 breast) of 47.8 µM and a TGI (CCRF-CEM leukemia) of 38.8 µM. It also gave a TGI (COLO 205 colon) of 40.8 µM, a TGI (DU-145 prostate) of 30.7 µM and a TGI (EKVX NSCLC) of 25.9 µM. For the same compound, the TGI (HCC-2998 colon) was 31 µM, the TGI (HCT-116 colon) was 29.9 µM and the TGI (HCT-15 colon) was 29.1 µM. It also gave a TGI (HL-60(TB) leukemia) of 43.7 µM, a TGI (HOP-62 NSCLC) of 26.5 µM and a TGI (HOP-92 NSCLC) of 11.1 µM. The TGI (HS 578T breast) was 46.9 µM, the TGI (HT29 colon) was 27.5 µM and the TGI (IGROV1 ovarian) was 25.9 µM. The TGI (K-562 leukemia) was 35.8 µM, the TGI (KM12 colon) was 29.6 µM and the TGI (LOX IMVI melanoma) was 27.6 µM. For the same compound, the TGI (MALME-3M melanoma) was 31 µM, the TGI (MCF7 breast) was 28.7 µM and the TGI (MDA-MB-231 breast) was 28.6 µM. For the same compound, the TGI (MDA-MB-435) was 29.3 µM, the TGI (MDA-N) was 30.1 µM and the TGI (MOLT-4 leukemia) was 26.1 µM. The TGI (NCI-H226 lung) was 54.3 µM, the TGI (NCI-H23 lung) was 34.4 µM and the TGI (NCI-H460 lung) was 32.4 µM. The TGI (NCI-H522 lung) was 26.5 µM, the TGI (NCI/ADR-RES ovarian) was 45.4 µM and the TGI (OVCAR-3 ovarian) was 32.3 µM. For the same compound, the TGI (OVCAR-4 ovarian) was 28.5 µM, the TGI (OVCAR-5 ovarian) was 30.6 µM and the TGI (OVCAR-8 ovarian) was 34.4 µM. It also gave a TGI (PC-3 prostate) of 29 µM, a TGI (RPMI-8226 leukemia) of 40.7 µM and a TGI (RXF 393 renal) of 30.1 µM. The TGI (SF-268 CNS) was 59.9 µM, the TGI (SF-295 CNS) was 28.7 µM and the TGI (SF-539 CNS) was 34.5 µM. For the same compound, the TGI (SK-MEL-28 melanoma) was 29.7 µM, the TGI (SK-MEL-5 melanoma) was 28.8 µM and the TGI (SN12C renal) was 28.2 µM. It also gave a TGI (SNB-19 CNS) of 29.8 µM, a TGI (SNB-75 CNS) of 38.7 µM and a TGI (SR leukemia) of 31.8 µM. For the same compound, the TGI (SW-620 colon) was 30.5 µM, the TGI (TK-10 renal) was 29.8 µM and the TGI (U251 CNS) was 29.4 µM. The TGI (UACC-257 melanoma) was 35.2 µM and the TGI (UO-31 renal) was 25.2 µM.
